Measured values from patent publication US7829589B2, “Sulfonamide compounds and uses thereof” (Elixir Pharmaceuticals, Inc., priority 2005, dated 2010).

Molecular target: GHS-R (Homo sapiens, UniProt Q92847)
Assay: GHS-R antagonist activity (Ki) in a cell based assay
Summary of the method: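 Transfected COS-7 cells were labelled 24 h with [^3H]-myo-inositol and preincubated 30 min at 37 °C in HEPES buffer pH 7.4 with 10 mM LiCl, optionally with 1 U/ml adenosine deaminase. Compound was applied for 45 min at 37 °C. [^3H]-inositol phosphates were extracted with perchloric acid and isolated by anion-exchange resin.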

Chain of GHS-R (Q92847 whole entry, species assumed): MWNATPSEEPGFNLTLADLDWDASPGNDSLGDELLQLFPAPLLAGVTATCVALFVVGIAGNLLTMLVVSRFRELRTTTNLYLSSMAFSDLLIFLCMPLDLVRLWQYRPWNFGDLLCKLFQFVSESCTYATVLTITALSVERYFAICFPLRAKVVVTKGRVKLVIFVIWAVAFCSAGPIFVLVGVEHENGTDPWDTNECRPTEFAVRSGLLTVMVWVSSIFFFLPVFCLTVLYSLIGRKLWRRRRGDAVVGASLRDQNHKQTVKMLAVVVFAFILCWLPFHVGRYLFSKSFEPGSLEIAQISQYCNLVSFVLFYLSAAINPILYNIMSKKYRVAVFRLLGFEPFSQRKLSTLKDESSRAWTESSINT

Q: How did the Ki turn out when CCN(CC)CCCS(=O)(=O)N[C@H](CCc1ccccc1)c1nc(-c2ccc(O)cc2)n[nH]1 [Compound 120, 3-Diethylamino-propane-1-sulfonic acid {(R)-1-[5-(4-hydroxy-phenyl)-2H-[1,2,4]triazol-3-yl]-3-phenyl-propyl}-amide] was run?
A: < 100 nM

Q: How did the Ki turn out when CCN(CC)CCCS(=O)(=O)N[C@H](CCc1ccccc1)c1nc(-c2cccc(O)c2)n[nH]1 [Compound 121, 3-Diethylamino-propane-1-sulfonic acid {(R)-1-[5-(3-hydroxy-phenyl)-2H-[1,2,4]triazol-3-yl]-3-phenyl-propyl}-amide] was run?
A: < 100 nM

Q: How did the Ki turn out when CCN(CC)CCCS(=O)(=O)N[C@H](CCc1ccccc1)c1nc(Cc2ccsc2)n[nH]1 [Compound 122, 3-Diethylamino-propane-1-sulfonic acid [(R)-3-phenyl-1-(5-thiophen-3-ylmethyl-2H-[1,2,4]triazol-3-yl)-propyl]-amide] was run?
A: < 100 nM

Q: For CCN(CC)CCCS(=O)(=O)N[C@H](CCc1ccccc1)c1nc(-c2cccc(SC)c2)n[nH]1 [Compound 123, 3-Diethylamino-propane-1-sulfonic acid {(R)-1-[5-(3-methylsulfanyl-phenyl)-2H-[1,2,4]triazol-3-yl]-3-phenyl-propyl}-amide], which Ki is on record?
A: < 100 nM

Q: CCN(CC)CCCS(=O)(=O)N[C@H](CCc1ccccc1)c1nc(Cn2nnc3ccccc32)n[nH]1 [Compound 124, 3-Diethylamino-propane-1-sulfonic acid [(R)-1-(5-benzotriazol-1-ylmethyl-2H-[1,2,4]triazol-3-yl)-3-phenyl-propyl]-amide] was tested. Which Ki did it give?
A: < 100 nM

Q: How did the Ki turn out when CCN(CC)CCCS(=O)(=O)N[C@H](CCc1ccccc1)c1nc(-c2ccc(OC)c(C#N)c2)n[nH]1 [Compound 125, 3-Diethylamino-propane-1-sulfonic acid {(R)-1-[5-(3-cyano-4-methoxy-phenyl)-2H-[1,2,4]triazol-3-yl]-3-phenyl-propyl}-amide] was run?
A: < 100 nM

Q: Which Ki does the source give for CCN(CC)CCCS(=O)(=O)N[C@H](CCc1ccccc1)c1nc(-c2ccc(C#N)c(Cl)c2)n[nH]1 [Compound 126, 3-Diethylamino-propane-1-sulfonic acid {(R)-1-[5-(3-chloro-4-cyano-phenyl)-2H-[1,2,4]triazol-3-yl]-3-phenyl-propyl}-amide] here?
A: < 100 nM

Q: With CCN(CC)CCCS(=O)(=O)N[C@H](CCc1ccccc1)c1nc(Cc2c[nH]c3ccccc23)n[nH]1 [Compound 127, 3-Diethylamino-propane-1-sulfonic acid {(R)-1-[5-(1H-indol-3-ylmethyl)-2H-[1,2,4]triazol-3-yl]-3phenyl-propyl}-amide] as the compound, how does the Ki read?
A: < 100 nM

Q: CCN(CC)CCCS(=O)(=O)N[C@H](CCc1ccccc1)c1nc(-c2ccc(F)c(C#N)c2)n[nH]1 [Compound 128, 3-Diethylamino-propane-1-sulfonic acid {(R)-1-[5-(3-cyano-4-fluoro-phenyl)-2H-[1,2,4]triazol-3-yl]-3-phenyl-propyl}-amide] was tested. Which Ki did it give?
A: < 100 nM

Q: How did the Ki turn out when CCN(CC)CCCS(=O)(=O)N[C@H](CCc1ccccc1)c1nc(-c2ccc3sccc3c2)n[nH]1 [Compound 129, 3-Diethylamino-propane-1-sulfonic acid [(R)-1-(5-benzo[b]thiophen-5-yl-2H-[1,2,4]triazol-3-yl)-3-phenyl-propyl]-amide] was run?
A: < 100 nM

Q: With CCN(CC)CCCS(=O)(=O)N[C@H](CCc1ccccc1)c1nc(-c2ccc3occc3c2)n[nH]1 [Compound 130, 3-Diethylamino-propane-1-sulfonic acid [(R)-1-(5-benzofuran-5-yl-2H-[1,2,4]triazol-3-yl)-3-phenyl-propyl]-amide] as the compound, how does the Ki read?
A: < 100 nM

Q: How did the Ki turn out when CCN(CC)CCCS(=O)(=O)N[C@H](CCc1ccccc1)c1nc(-c2cn(C)cn2)n[nH]1 [Compound 131, 3-Diethylamino-propane-1-sulfonic acid {(R)-1-[5-(1-methyl-1H-imidazol-4-yl)-2H-[1,2,4]triazol-3-yl]-3-phenyl-propyl}-amide] was run?
A: < 100 nM

Q: With CCN(CC)CCCS(=O)(=O)N[C@H](CCc1ccccc1)c1nc(Cc2cc(F)cc(F)c2)n[nH]1 [Compound 132, 3-Diethylamino-propane-1-sulfonic acid {(R)-1-[5-(3,5-difluoro-benzyl)-2H-[1,2,4]triazol-3-yl]-3-phenyl-propyl}-amide] as the compound, how does the Ki read?
A: < 100 nM

Q: With CCN(CC)CCCS(=O)(=O)N[C@H](CCc1ccccc1)c1nc(Cc2nc(C)cs2)n[nH]1 [Compound 133, 3-Diethylamino-propane-1-sulfonic acid {(R)-1-[5-(4-methyl-3H-1lambda*4*-thiazol-2-ylmethyl)-2H-[1,2,4]triazol-3-yl]-3-phenyl-propyl}-amide] as the compound, how does the Ki read?
A: < 100 nM

Q: CCN(CC)CCCS(=O)(=O)N[C@H](CCc1ccccc1)c1nc(-c2ccc3nccn3c2)n[nH]1 [Compound 134, 3-Diethylamino-propane-1-sulfonic acid {(R)-1-[5-(1H-imidazo[1,2,-a]pyridin-6-yl)-2H-[1,2,4]triazol-3-yl]-3-phenyl-propyl}-amide] was tested. Which Ki did it give?
A: 100 to 500 nM

Q: With CCN(CC)CCCS(=O)(=O)N[C@H](CCc1ccccc1)c1nc(-c2cncn2C)n[nH]1 [Compound 135] as the compound, how does the Ki read?
A: < 100 nM

Q: How did the Ki turn out when CCN(CC)CCCS(=O)(=O)N[C@H](CCc1ccccc1)c1nc(C2CNc3ccccc3O2)n[nH]1 (stereo partly drawn) [Compound 136, 3-Diethylamino-propane-1-sulfonic acid {(R)-1-[5-(3,4-dihydro-2H-benzo[1,4]oxazin-2-yl)-2H-[1,2,4]triazol-3-yl]-3-phenyl-propyl}-amide] was run?
A: < 100 nM

Q: How did the Ki turn out when CCN(CC)CCCS(=O)(=O)N[C@H](CCc1ccccc1)c1nc(-c2csc(C)n2)n[nH]1 [Compound 137, 3-Diethylamino-propane-1-sulfonic acid {(R)-1-[5-(2-methyl-thiazol-4-yl)-2H-[1,2,4]triazol-3-yl]-3-phenyl-propyl}-amide] was run?
A: < 100 nM

Q: With CCN(CC)CCCS(=O)(=O)N[C@H](CCc1ccccc1)c1nc(-c2ccc(OC)nc2)n[nH]1 [Compound 138, 3-Diethylamino-propane-1-sulfonic acid {(R)-1-[5-(6-methoxy-pyridin-3-yl)-2H-[1,2,4]triazol-3-yl]-3-phenyl-propyl}-amide] as the compound, how does the Ki read?
A: < 100 nM

Q: For CCN(CC)CCCS(=O)(=O)N[C@H](CCc1ccccc1)c1nc(C2CCCCC2)n[nH]1 [Compound 139, 3-Diethylamino-propane-1-sulfonic acid [(R)-1-(5-cyclohexyl-2H-[1,2,4]triazol-3-yl)-3-phenyl-propyl]-amide], which Ki is on record?
A: < 100 nM

Q: With CCN(CC)CCCS(=O)(=O)N1CCC[C@H]1c1nc(Cc2ccc(Br)cc2)no1 [Compound 142, (S)-(3-{2-[3-(4-Bromo-benzyl)-[1,2,4]oxadiazol-5-yl]-pyrrolidine-1-sulfonyl}-propyl)-diethyl-amine] as the compound, how does the Ki read?
A: 100 to 500 nM

Q: How did the Ki turn out when CCN(CC)CCCS(=O)(=O)N1CCC[C@H]1c1nc(-c2ccc(OC)cc2)no1 [Compound 143, (S)-Diethyl-(3-{2-[3-(4-methoxy-phenyl)-[1,2,4]oxadiazol-5-yl]-pyrrolidine-1-sulfonyl}-propyl)-amine] was run?
A: 100 to 500 nM

Q: How did the Ki turn out when CCN(CC)CCCS(=O)(=O)N1CCC[C@@H]1c1nc(-c2ccc(OC)cc2)no1 [Compound 144, (R)-Diethyl-(3-{2-[3-(4-methoxy-phenyl)-[1,2,4]oxadiazol-5-yl]-pyrrolidine-1-sulfonyl}-propyl)-amine] was run?
A: 100 to 500 nM

Q: With CCN(CC)CCCS(=O)(=O)N1CCC[C@@H]1c1nc(Cc2ccc(Br)cc2)no1 [Compound 145, (R)-(3-{2-[3-(4-Bromo-benzyl)-[1,2,4]oxadiazol-5-yl]-pyrrolidine-1-sulfonyl}-propyl)-diethyl-amine] as the compound, how does the Ki read?
A: 100 to 500 nM

Q: With CCN(CC)CCCS(=O)(=O)N[C@@H](C)c1nc(Cc2ccc(Br)cc2)no1 [Compound 146, (S)-3-Diethylamino-propane-1-sulfonic acid {1-[3-(4-bromo-benzyl)-[1,2,4]oxadiazol-5-yl]-ethyl}-amide] as the compound, how does the Ki read?
A: 100 to 500 nM

Q: CCN(CC)CCCS(=O)(=O)N[C@H](C)c1nc(Cc2ccc(Br)cc2)no1 [Compound 147, (R)-3-Diethylamino-propane-1-sulfonic acid {1-[3-(4-bromo-benzyl)-[1,2,4]oxadiazol-5-yl]-ethyl}-amide] was tested. Which Ki did it give?
A: 100 to 500 nM

Q: How did the Ki turn out when CCN(CC)CCCS(=O)(=O)NCc1nc(-c2ccc(OC)cc2)no1 [Compound 148, 3-Diethylamino-propane-1-sulfonic acid [3-(4-methoxy-phenyl)-[1,2,4]oxadiazol-5-ylmethyl]-amide] was run?
A: 500 to 1000 nM

Q: How did the Ki turn out when CCN(CC)CCCS(=O)(=O)N1CC[C@H]1c1nc(Cc2ccc(Br)cc2)no1 [Compound 149, (S)-(3-{2-[3-(4-Bromo-benzyl)-[1,2,4]oxadiazol-5-yl]-azetidine-1-sulfonyl}-propyl)-diethyl-amine] was run?
A: < 100 nM

Q: CCN(CC)CCCS(=O)(=O)N[C@@H](C)c1nc(-c2ccc(OC)cc2)no1 [Compound 150, (S)-3-Diethylamino-propane-1-sulfonic acid {1-[3-(4-methoxy-phenyl)-[1,2,4]oxadiazol-5-yl]-ethyl}-amide] was tested. Which Ki did it give?
A: 100 to 500 nM

Q: For CCN(CC)CCCS(=O)(=O)NCc1nc(Cc2ccc(Br)cc2)no1 [Compound 151, 3-Diethylamino-propane-1-sulfonic acid [3-(4-bromo-benzyl)-[1,2,4]oxadiazol-5-ylmethyl]-amide], which Ki is on record?
A: 100 to 500 nM

Q: Which Ki does the source give for CCN(CC)CCCS(=O)(=O)N[C@H](C)c1nc(-c2ccc(OC)cc2)no1 [Compound 152, (R)-3-Diethylamino-propane-1-sulfonic acid {1-[3-(4-methoxy-phenyl)-[1,2,4]oxadiazol-5-yl]-ethyl}-amide] here?
A: 100 to 500 nM

Q: For CCN(CC)CCCS(=O)(=O)N1CC[C@H]1c1nc(-c2ccc(OC)cc2)no1 [Compound 153, (S)-Diethyl-(3-{2-[3-(4-methoxy-phenyl)-[1,2,4]oxadiazol-5-yl]-azetidine-1-sulfonyl}-propyl)-amine], which Ki is on record?
A: < 100 nM

Q: For CCN(CC)CCCS(=O)(=O)NC(C)(C)c1nc(Cc2ccc(Br)cc2)no1 [Compound 154, 3-Diethylamino-propane-1-sulfonic acid {1-[3-(4-bromo-benzyl)-[1,2,4]oxadiazol-5-yl]-1-methyl-ethyl}-amide], which Ki is on record?
A: < 100 nM
